Ends that are not written are not given here.
Assays:
[1] = system: S. aureus ATCC 25923; assay: MIC, broth microdilution (CLSI); format: cell-based; details: S. aureus ATCC 25923, Gram-positive, 96-well
Protocol: (§1) S. aureus AB94004, S. aureus ATCC 25923, E. coli AB94012, E. coli ATCC 25922, Pseudomonas aeruginosa AB93066, Bacillus thuringiensis AB92037, Bacillus subtilis AB91021, and Micrococcus luteus AB93113 were purchased from the China Center of Type Culture Collection (CCTCC).
(§2) The MIC was determined via a microdilution assay in 96-well microtiter plates according to the broth microdilution guideline of Clinical and Laboratory Standards Institute (CLSI).

[2] = system: E. coli ATCC 25922; assay: MIC, broth microdilution (CLSI); format: cell-based; details: E. coli ATCC 25922, Gram-negative, 96-well
Protocol: as §1, §2

[3] = system: B. subtilis AB91021; assay: MIC, broth microdilution (CLSI); format: cell-based, Bacillus subtilis; details: B. subtilis AB91021, Gram-positive, 96-well
Protocol: as §1, §2

[4] = system: penicillin-resistant S. epidermidis (PRSE) P1389; assay: microbe, parasite or virus in culture; format: cell-based; details: P1389, penicillin resistant (PRSE) clinical isolate; repeated at least three times
Protocol: (§3) Clinical isolates were obtained from the 302nd military hospital of Beijing, China, including penicillin-resistant S. aureus (PRSA) P1383, penicillin-resistant S. epidermidis (PRSE) P1389, methicillin-resistant S. aureus (MRSA) P1381, P1386 and P1374, methicillin-resistant coagulase-negative Staphylococcus (MRCNS) P1369, and penicillin-sensitive S. epidermidis (PSSE) P1111.
as §2

[5] = system: methicillin-resistant S. aureus (MRSA) P1374; assay: microbe, parasite or virus in culture; format: cell-based; details: P1374, methicillin resistant (MRSA) clinical isolate; repeated at least three times
Protocol: as §3, §2

[6] = system: penicillin-sensitive S. epidermidis (PSSE) P1111; assay: microbe, parasite or virus in culture; format: cell-based; details: P1111, penicillin sensitive (PSSE) clinical isolate; repeated at least three times
Protocol: as §3, §2

[7] = system: methicillin-resistant S. aureus (MRSA) P1386; assay: microbe, parasite or virus in culture; format: cell-based; details: P1386, methicillin resistant (MRSA) clinical isolate; repeated at least three times
Protocol: as §3, §2

[8] = system: penicillin-resistant S. aureus (PRSA) P1383; assay: microbe, parasite or virus in culture; format: cell-based; details: P1383, penicillin resistant (PRSA) clinical isolate; repeated at least three times
Protocol: as §3, §2

[9] = system: methicillin-resistant S. aureus (MRSA) P1381; assay: microbe, parasite or virus in culture; format: cell-based; details: P1381, methicillin resistant (MRSA) clinical isolate; repeated at least three times
Protocol: as §3, §2

[10] = system: methicillin-resistant coagulase-negative Staphylococcus (MRCNS) P1369; assay: microbe, parasite or virus in culture; format: cell-based; details: P1369, methicillin resistant (MRCNS) clinical isolate; repeated at least three times
Protocol: as §2

[11] = system: HIV-1; details: by direct interaction with viral particle; cited from earlier work
From the text: In a previous study by our group, we characterized an antimicrobial peptide, BmKn2, derived from the venom of the scorpion Mesobuthus martensii Karsch. In the present study, a derivative of BmKn2, was designed to increase the antibacterial activity and reduce the hemolytic activity. […] In addit ...

[12] = system: E. coli AB94012; assay: LTA and LPS competition binding assay (MIC); format: cell-based; details: controls of the competition assay (Figure 7C): untreated peptide, or LTA / LPS alone
Protocol: To confirm the results of the BLI titrations, 250 µg/mL of Kn2-7 or BmKn2 was mixed with an equal volume of 1 mg/mL LTA or LPS. Then, the MICs of Kn2-7 or BmKn2 mixed with LTA against S. aureus and E. coli were measured. […] The MICs of Kn2-7 and BmKn2 treated with LTA against S. aureus were 25 and 12.5 µg/mL, respectively.
A total of 250 µg/mL of each peptide solution was mixed with an equal volume of 1 mg/mL of the LTA or LPS solution. Then, the MICs of BmKn2 and Kn2-7 treated with LTA or LPS against S. aureus AB94004 and E. coli AB94012 were measured.

[13] = system: S. aureus; assay: S. aureus mouse skin abrasion and infection model; format: in vivo, mouse (BALB/c)
Protocol: Female BALB/c mice weighing 18–20 g were purchased from the Hubei Research Center of Laboratory Animals. All animal studies were approved by the Institutional Animal Care and Use Committee of Wuhan University.
Kn2-7 or BmKn2 was prepared in gel form in 0.5% hydroxypropylcellulose to a final concentration of 5 mg/mL.
Mice were injected with 150 mg/kg of cyclophosphamide 4 days prior to infection. Subsequently, the mice were injected with 100 mg/kg of cyclophosphamide 1 day prior to infection. After being anesthetized, the dorsal skin of the mice was shaved, and abrasions were produced in a 1×1 cm^2 area using a blade. These abrasion wounds damaged only the stratum corneum and upper layer of the epidermis, but not the dermis. Five minutes later, the wounds were inoculated with 20 µl of S. aureus (10^7–10^8 CFUs) using a micropipettor. A group of mice was killed 4 h after infection to control for the infectious dose. Four hours after infection, the wounds of the other mice were smeared with 20 µl of 5 mg/mL gel or a placebo gel, which was used as a negative control. The treatment lasted for 4 days, with two peptide gel applications being performed daily (morning and evening at 8 h intervals). After 4 days of treatment, the mice were killed, and the wound area of the skin was immediately excised and homogenized. Suitable dilutions of the homogenates were plated on LB plates to determine the number of living bacteria (CFUs).
After the animals were euthanized, biopsy specimens of the excised wound area of the skin were collected and immediately fixed in phosphate-buffered formalin (10%, pH = 7.4). Then, the biopsy specimens were embedded in paraffin and stained with hematoxylin and eosin.
In each experiment, the mean CFU was calculated using log10-transformed data. Based on the averages of three experiments, the mean, range, and coefficient of variation were calculated.

Substance | MIC [1] | MIC [2] | MIC [3] | MIC [4] | MIC [5] | MIC [6] | MIC [7] | MIC [8] | MIC [9] | MIC [10] | Inhibition of HIV-1 [11] | MIC E.coli, substance alone [12] | Cutaneous viable counts (colony counts) of S. aureus ([13]; female BALB/c mice, cyclophosphamide-pretreated, skin abrasion, 10^7–10^8 CFUs, topical 20 µl of 5 mg/mL gel (0.5% hydroxypropylcellulose) twice daily for 4 days, eight mice per group, versus placebo-treated and untreated mice) | Histological morphology of the skin sections, four days after infection ([13]; hematoxylin and eosin, topical 5 mg/mL gel twice daily for 4 days, untreated and placebo groups lost nearly all epidermis) | Appearance of the infected skin, four days after infection ([13]; topical 5 mg/mL gel twice daily for 4 days, placebo blisters became larger) | Appearance of the infected skin, one day after infection ([13]; topical 5 mg/mL gel twice daily, placebo skin wet with blistering)
FIGAIARLLSKIF-NH2 [BmKn2] | 6.25 µg/mL | >100 µg/mL | 12.5 µg/mL | 12.5 µg/mL | 12.5 µg/mL | 6.25 µg/mL | 12.5 µg/mL | 12.5 µg/mL | 12.5 µg/mL | 12.5 µg/mL | – | – | – | – | – | –
FIKRIARLLRKIF [Kn2-7] | – | – | – | – | – | – | – | – | – | – | could inhibit HIV-1 | 6.25 µg/mL | clearly lower | recovered almost fully | healed | scabbed over
